Test results published in patent US7056355B2, “Hair dye composition and dyeing method” (Kao Corporation, priority 2002, dated 2006).

Assay: pKa determination in DMF/water by titration with UV-visible spectra
Format: physicochemical
Conditions: dye 2×10^−5 mol/l; for pKa: DMF/water (1/1 by volume) solution; for pka: DMF/water (1/1 by volume)
Experimental: The pKa value is determined in DMF/water (1/1-mixture, by volume) as follows:
The dye is dissolved in a solution of a DMF/water (1/1; volume ratio) to a final concentration of 2×10^−5 mol/l. After the resulting solution is adjusted to pH 2, using 1.0 mol/l hydrochloric acid, the solution is titrated with an aqueous 1.0 mol/l sodium hydroxide solution. Recording the change of the visible ultra-violet absorption spectrum, the inflection point is determined by regression analysis.

Row | pKa | pka | SMILES
1 | 4.2 |  | N#CC1=NN(c2ccccc2)C(=O)C1/N=N/c1ccc(S(N)(=O)=O)cc1 [Dye D-6]
2 | 4.6 |  | COc1ccc(/N=N/C2C(=O)N(c3ccccc3)N=C2C#N)cc1 [Dye D-7]
3 | 4.36 |  | COc1ccc(/N=N/C2C(=O)N(c3ccc(S(N)(=O)=O)cc3)N=C2C#N)cc1 [Dye D-15]
4 |  | 2.86 | N#CC1=NN(c2ccccc2)C(=O)C1/N=N/c1cc(Cl)c(S(N)(=O)=O)cc1Cl [Dye D-18]

Continued, compound first:

Row | SMILES | pKa | pka
5 | N#CC(/N=N/c1ccc(S(N)(=O)=O)cc1)C(=O)c1ccccc1 [Dye D-14] | 5.82 | 
6 | Cc1nn2nc(C(C)(C)C)c(/N=N/c3cc(Cl)c(S(N)(=O)=O)cc3Cl)c2[nH]1 [Dye D-17] | 5.92 | 
7 | CS(=O)(=O)Nc1cccc2c(O)ccc(/N=N/c3ccc([N+](=O)[O-])cc3S(C)(=O)=O)c12 [Dye D-21] |  | 4.32
8 | NS(=O)(=O)c1cccc(S(=O)(=O)Nc2cccc3c(O)ccc(/N=N/c4ccc([N+](=O)[O-])cc4)c23)c1 [Dye D-22] |  | 6.34
9 | CCOC(=O)Nc1cc(/N=N/c2ccc(S(C)(=O)=O)cc2C#N)c2c(NS(C)(=O)=O)cccc2c1O [Dye D-24] |  | 5.09
10 | CS(=O)(=O)c1ccc(/N=N/c2ccc(O)c3ccccc23)c(C#N)c1 [Dye D-25] | 6.5 | 
11 | CC(=O)Nc1cc(/N=N/c2ccc(S(C)(=O)=O)cc2C#N)c2ccccc2c1O [Dye D-26] | 7.1 | 
